SMILES strings stand for the structures. Some results are limits rather than exact numbers.

The record followed here is patent publication US8791107B2, “N-substituted oxazinopteridines and oxazinopteridinones” (Takeda Pharmaceutical Company Limited, priority 2011, dated 2014).

The target of the experiment is T1, PI3Kδ (Homo sapiens, UniProt O00329).
T1 construct: The protein is full length and co-expressed with untagged PIK3R1; GST; purchased Invitrogen PV5274
T1 sequence (O00329 whole entry): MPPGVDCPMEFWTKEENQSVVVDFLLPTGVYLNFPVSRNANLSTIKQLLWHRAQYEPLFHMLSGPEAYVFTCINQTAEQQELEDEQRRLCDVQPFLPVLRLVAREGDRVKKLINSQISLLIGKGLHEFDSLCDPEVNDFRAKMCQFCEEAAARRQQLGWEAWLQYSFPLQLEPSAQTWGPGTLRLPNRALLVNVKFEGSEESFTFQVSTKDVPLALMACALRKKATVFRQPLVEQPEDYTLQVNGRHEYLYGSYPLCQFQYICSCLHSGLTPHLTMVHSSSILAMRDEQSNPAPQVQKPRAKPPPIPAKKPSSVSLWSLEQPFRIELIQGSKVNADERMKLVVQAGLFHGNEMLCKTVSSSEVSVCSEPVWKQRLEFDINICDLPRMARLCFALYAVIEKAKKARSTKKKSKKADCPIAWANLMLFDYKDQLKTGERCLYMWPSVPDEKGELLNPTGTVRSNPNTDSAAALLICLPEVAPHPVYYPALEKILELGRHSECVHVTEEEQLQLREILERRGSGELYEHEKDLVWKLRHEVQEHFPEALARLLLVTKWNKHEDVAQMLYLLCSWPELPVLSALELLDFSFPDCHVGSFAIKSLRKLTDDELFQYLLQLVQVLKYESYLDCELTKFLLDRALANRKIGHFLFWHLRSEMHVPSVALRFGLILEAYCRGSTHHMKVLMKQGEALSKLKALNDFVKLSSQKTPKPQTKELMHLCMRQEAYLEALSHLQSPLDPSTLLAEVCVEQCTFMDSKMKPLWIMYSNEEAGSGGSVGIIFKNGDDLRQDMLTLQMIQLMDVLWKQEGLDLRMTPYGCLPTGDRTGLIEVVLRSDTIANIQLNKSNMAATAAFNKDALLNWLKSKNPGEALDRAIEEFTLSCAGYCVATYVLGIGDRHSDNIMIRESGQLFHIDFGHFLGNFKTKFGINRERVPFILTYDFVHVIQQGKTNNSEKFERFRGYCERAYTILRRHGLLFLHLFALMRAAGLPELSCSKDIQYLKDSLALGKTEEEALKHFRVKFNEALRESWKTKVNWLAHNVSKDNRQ
T1 sequence (P27986 whole entry partner): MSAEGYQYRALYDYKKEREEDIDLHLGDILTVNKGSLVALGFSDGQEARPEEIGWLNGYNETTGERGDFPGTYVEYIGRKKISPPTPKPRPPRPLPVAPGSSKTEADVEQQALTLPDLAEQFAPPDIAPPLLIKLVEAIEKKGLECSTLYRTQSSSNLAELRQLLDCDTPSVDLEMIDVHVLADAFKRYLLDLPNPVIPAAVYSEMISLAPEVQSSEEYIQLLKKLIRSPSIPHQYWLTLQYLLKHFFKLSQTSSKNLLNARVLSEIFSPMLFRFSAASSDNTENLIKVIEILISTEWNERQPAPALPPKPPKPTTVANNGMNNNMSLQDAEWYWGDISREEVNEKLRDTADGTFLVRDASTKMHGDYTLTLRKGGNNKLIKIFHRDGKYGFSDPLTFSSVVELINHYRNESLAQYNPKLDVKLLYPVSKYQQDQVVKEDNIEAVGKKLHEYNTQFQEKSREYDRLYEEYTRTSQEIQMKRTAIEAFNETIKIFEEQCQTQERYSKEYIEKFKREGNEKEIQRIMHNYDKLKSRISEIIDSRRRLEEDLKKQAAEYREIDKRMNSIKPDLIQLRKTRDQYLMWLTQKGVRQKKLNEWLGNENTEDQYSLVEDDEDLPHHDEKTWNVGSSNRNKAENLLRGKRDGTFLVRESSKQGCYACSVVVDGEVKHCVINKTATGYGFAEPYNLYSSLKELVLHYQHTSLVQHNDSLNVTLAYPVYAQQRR
As to the kind of experiment: PI3Kδ inhibition, modified PIK3CD Adapta TR-FRET assay. It is filed as biochemical. The settings on record: recombinant GST-tagged full length PIK3CD co-expressed with PIK3R1 (p85α); 2 μM ATP, 50 μM PIP2; read-out: PI3Kδ Inhibition (pIC50) (converted). In a few lines: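 Full-length GST-PIK3CD co-expressed with p85α was run in 50 mM HEPES pH 7.5, 3 mM MgCl2, 1 mM EGTA, 100 mM NaCl, 0.03% CHAPS, 2 mM DTT, 1% DMSO, with 12-point compound titrations. Reactions at room temperature were started with solution containing 2 μM ATP and 50 μM PIP2. ADP was detected by Adapta TR-FRET (620 nm-ratioed).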
On the technique in general: TR-FRET usually uses a lanthanide donor and a delayed reading to cut background.
As for `CS(=O)(=O)c1ccc(CN2C(=O)C3COCCN3c3nc(-c4ccnc5[nH]ccc45)ncc32)cc1` (stereo not shown) [Example 155, 5-(4-(methylsulfonyl)benzyl)-2-(1H-pyrrolo[2,3-b]pyridin-4-yl)-6a,7,9,10-tetrahydro-[1,4]oxazino[3,4-h]pteridin-6(5H)-one], the IC50 was 25.1 nM. On to `Cc1nccn1-c1ncc2c(n1)N1CCOCC1C(=O)N2Cc1ccc(S(C)(=O)=O)cc1` (stereo not shown) [Example 156, 2-(2-methyl-1H-imidazol-1-yl)-5-(4-(methylsulfonyl)benzyl)-6a,7,9,10-tetrahydro-[1,4]oxazino[3,4-h]pteridin-6(5H)-one], for which the IC50 is 316 nM. As for `Cc1nnc(CN2C(=O)C3COCCN3c3nc(-n4c(C(F)F)nc5ccccc54)ncc32)o1` (stereo not shown) [Example 157, 2-(2-(difluoromethyl)-1H-benzo[d]imidazol-1-yl)-5-((5-methyl-1,3,4-oxadiazol-2-yl)methyl)-6a,7,9,10-tetrahydro-[1,4]oxazino[3,4-h]pteridin-6(5H)-one], the IC50 was 39.8 nM. Regarding `CNC(=O)Nc1ccc(-c2ncc3c(n2)N2CCOCC2C(=O)N3C2CCOCC2)cc1` (stereo not shown) [Example 158, 1-methyl-3-(4-(6-oxo-5-(tetrahydro-2H-pyran-4-yl)-5,6,6a,7,9,10-hexahydro-[1,4]oxazino[3,4-h]pteridin-2-yl)phenyl)urea], the IC50 is 7.94 nM. `CNC(=O)Nc1ccc(-c2ncc3c(n2)N2CCOC[C@@H]2C(=O)N3C2CCOCC2)cc1` [Example 159, (R)-1-methyl-3-(4-(6-oxo-5-(tetrahydro-2H-pyran-4-yl)-5,6,6a,7,9,10-hexahydro-[1,4]oxazino[3,4-h]pteridin-2-yl)phenyl)urea]: the IC50 is 2.51 nM. Take `c1cnc(CN2CC3COCCN3c3nc(-c4cccc5[nH]ccc45)ncc32)nc1` (stereo not shown) [Example 164, 2-(1H-indol-4-yl)-5-(pyrimidin-2-ylmethyl)-5,6,6a,7,9,10-hexahydro-[1,4]oxazino[3,4-h]pteridine]: the IC50 is 79.4 nM. Take `COC(=O)c1ccc(C)cc1CN1C[C@@H]2COCCN2c2nc(-c3cccc4[nH]ccc34)ncc21` [Example 165, (R)-methyl 2-((2-(1H-indol-4-yl)-6a,7,9,10-tetrahydro-[1,4]oxazino[3,4-h]pteridin-5(6H)-yl)methyl)-4-methylbenzoate]: the IC50 is 794 nM.

On to `Cc1ccc(CO)c(CN2C[C@@H]3COCCN3c3nc(-c4cccc5[nH]ccc45)ncc32)c1` [Example 166, (R)-(2-((2-(1H-indol-4-yl)-6a,7,9,10-tetrahydro-[1,4]oxazino[3,4-h]pteridin-5(6H)-yl)methyl)-4-methylphenyl)methanol], for which the IC50 is 63.1 nM.

For `CCc1nnc(CN2C[C@@H]3COCCN3c3nc(-c4cncc5[nH]ccc45)ncc32)o1` [Example 167, (R)-5-((5-ethyl-1,3,4-oxadiazol-2-yl)methyl)-2-(1H-pyrrolo[2,3-c]pyridin-4-yl)-5,6,6a,7,9,10-hexahydro-[1,4]oxazino[3,4-h]pteridine], the IC50 is 1000 nM.

In the case of `CCc1nnc(CN2C[C@@H]3COCCN3c3nc(-c4ccc(O)nc4)ncc32)o1` [Example 168, (R)-5-(5-((5-ethyl-1,3,4-oxadiazol-2-yl)methyl)-5,6,6a,7,9,10-hexahydro-[1,4]oxazino[3,4-h]pteridin-2-yl)pyridin-2-ol], the IC50 is above 10000 nM. For `CC(C)(O)CCN1C[C@@H]2COCCN2c2nc(-c3cccc4[nH]ccc34)ncc21` [Example 169, (R)-4-(2-(1H-indol-4-yl)-6a,7,9,10-tetrahydro-[1,4]oxazino[3,4-h]pteridin-5(6H)-yl)-2-methylbutan-2-ol], the IC50 is 7.94 nM.

With `CC(C)(O)CCN1C[C@@H]2COCCN2c2nc(-c3cncc4[nH]ccc34)ncc21` [Example 170, (R)-4-(2-(1H-pyrrolo[2,3-c]pyridin-4-yl)-6a,7,9,10-tetrahydro-[1,4]oxazino[3,4-h]pteridin-5(6H)-yl)-2-methylbutan-2-ol], the IC50 was 6.31 nM. Turning to `CC(C)(O)CCN1C[C@@H]2COCCN2c2nc(-c3cccc(CO)c3)ncc21` [Example 171, (R)-4-(2-(3-(hydroxymethyl)phenyl)-6a,7,9,10-tetrahydro-[1,4]oxazino[3,4-h]pteridin-5(6H)-yl)-2-methylbutan-2-ol], the IC50 is 3.16 nM. With `CCc1nnc(CN2C[C@@H]3COCCN3c3nc(-c4cccc(CO)c4)ncc32)o1` [Example 172, (R)-(3-(5-((5-ethyl-1,3,4-oxadiazol-2-yl)methyl)-5,6,6a,7,9,10-hexahydro-[1,4]oxazino[3,4-h]pteridin-2-yl)phenyl)methanol], the IC50 is 5.01 nM. The result for `OCCN1C[C@@H]2COCCN2c2nc(-c3cccc4[nH]ccc34)ncc21` [Example 173, (R)-2-(2-(1H-indol-4-yl)-6a,7,9,10-tetrahydro-[1,4]oxazino[3,4-h]pteridin-5(6H)-yl)ethanol] reads 158 nM; that for `O=C(CN1C[C@@H]2COCCN2c2nc(-c3cncc4[nH]ccc34)ncc21)NCC1CCOCC1` [Example 174, (R)-2-(2-(1H-pyrrolo[2,3-c]pyridin-4-yl)-6a,7,9,10-tetrahydro-[1,4]oxazino[3,4-h]pteridin-5(6H)-yl)-N-((tetrahydro-2H-pyran-4-yl)methyl)acetamide], 7.94 nM.

Take `CC(C)Cc1nnc(C(C)N2C[C@@H]3COCCN3c3nc(-c4cccc5[nH]ccc45)ncc32)o1` (stereo partly drawn) [Example 175, (6aR)-2-(1H-indol-4-yl)-5-(1-(5-isobutyl-1,3,4-oxadiazol-2-yl)ethyl)-5,6,6a,7,9,10-hexahydro-[1,4]oxazino[3,4-h]pteridine]: the IC50 was 1.58 nM.

As for `CC(C)Cc1nnc(C(C)N2C[C@@H]3COCCN3c3nc(-c4cccc(CO)c4)ncc32)o1` (stereo partly shown) [Example 176], the IC50 was 1.58 nM.

For `CCc1nnc(C(C)N2C[C@@H]3COCCN3c3nc(-c4cccc(CO)c4)ncc32)o1` (stereo partly drawn) [Example 177, (3-((6aR)-5-(1-(5-ethyl-1,3,4-oxadiazol-2-yl)ethyl)-5,6,6a,7,9,10-hexahydro-[1,4]oxazino[3,4-h]pteridin-2-yl)phenyl)methanol], the IC50 is 2 nM.

Turning to `CCc1nnc(C(C)N2C[C@@H]3COCCN3c3nc(-c4cccc5[nH]ccc45)ncc32)o1` (stereo partly drawn) [Example 178, (6aR)-5-(1-(5-ethyl-1,3,4-oxadiazol-2-yl)ethyl)-2-(1H-indol-4-yl)-5,6,6a,7,9,10-hexahydro-[1,4]oxazino[3,4-h]pteridine], the IC50 is 1.58 nM. In the case of `CCc1nnc(CN2C[C@@H]3COCCN3c3nc(-c4cc(CO)ccc4F)ncc32)o1` [Example 179, (R)-(3-(5-((5-ethyl-1,3,4-oxadiazol-2-yl)methyl)-5,6,6a,7,9,10-hexahydro-[1,4]oxazino[3,4-h]pteridin-2-yl)-4-fluorophenyl)methanol], the IC50 was 50.1 nM.

Take `CCc1nnc(CN2C[C@@H]3COCCN3c3nc(-n4ccc5cnccc54)ncc32)o1` [Example 180, (R)-5-((5-ethyl-1,3,4-oxadiazol-2-yl)methyl)-2-(1H-pyrrolo[3,2-c]pyridin-1-yl)-5,6,6a,7,9,10-hexahydro-[1,4]oxazino[3,4-h]pteridine]: the IC50 was 398 nM. Turning to `c1ccc(N2CC3COCCN3c3nc(-c4cccc5[nH]ccc45)ncc32)cc1` (stereo not shown) [Example 181, 2-(1H-indol-4-yl)-5-phenyl-5,6,6a,7,9,10-hexahydro-[1,4]oxazino[3,4-h]pteridine], the IC50 is 79.4 nM. Take `Cn1cc(CN2C[C@@H]3COCCN3c3nc(-c4cccc5[nH]ccc45)ncc32)cn1` [Example 182, (R)-2-(1H-indol-4-yl)-5-((1-methyl-1H-pyrazol-4-yl)methyl)-5,6,6a,7,9,10-hexahydro-[1,4]oxazino[3,4-h]pteridine]: the IC50 is 15.8 nM.

Regarding `CCc1cccc(N2C[C@@H]3COCCN3c3nc(-c4cccc5[nH]ccc45)ncc32)c1` [Example 183, (R)-5-(3-ethylphenyl)-2-(1H-indol-4-yl)-5,6,6a,7,9,10-hexahydro-[1,4]oxazino[3,4-h]pteridine], the IC50 is 398 nM. The same measure for `CCc1ccccc1N1C[C@@H]2COCCN2c2nc(-c3cccc4[nH]ccc34)ncc21` [Example 184, (R)-5-(2-ethyl-phenyl)-2-(1H-indol-4-yl)-5,6,6a,7,9,10-hexahydro-[1,4]oxazino[3,4-h]pteridine]: 398 nM; for `c1cc(-c2ncc3c(n2)N2CCOC[C@H]2CN3Cc2cnco2)c2cc[nH]c2c1` [Example 185, (R)-2-(1H-indol-4-yl)-5-(oxazol-5-ylmethyl)-5,6,6a,7,9,10-hexahydro-[1,4]oxazino[3,4-h]pteridine]: 10 nM; for `N#Cc1ccccc1N1C[C@@H]2COCCN2c2nc(-c3cccc4[nH]ccc34)ncc21` [Example 186, (R)-2-(2-(1H-indol-4-yl)-6a,7,9,10-tetrahydro-[1,4]oxazino[3,4-h]pteridin-5(6H)-yl)benzonitrile]: 50.1 nM. The result for `Cc1ccccc1N1C[C@@H]2COCCN2c2nc(-c3cccc4[nH]ccc34)ncc21` [Example 187, (R)-2-(1H-indol-4-yl)-5-(o-tolyl)-5,6,6a,7,9,10-hexahydro-[1,4]oxazino[3,4-h]pteridine] reads 126 nM; that for `CCc1cc(CN2C[C@@H]3COCCN3c3nc(-c4cccc5[nH]ccc45)ncc32)on1` [Example 188, (R)-5-((3-ethylisoxazol-5-yl)methyl)-2-(1H-indol-4-yl)-5,6,6a,7,9,10-hexahydro-[1,4]oxazino[3,4-h]pteridine], 39.8 nM; that for `OC1CCC(N2C[C@@H]3COCCN3c3nc(-c4cccc5[nH]ccc45)ncc32)CC1` (stereo partly drawn) [Example 189, (R)-4-(2-(1H-indol-4-yl)-6a,7,9,10-tetrahydro-[1,4]oxazino[3,4-h]pteridin-5(6H)-yl)cyclohexanol], 7.94 nM.
